Counter-ions that a name gives are not always drawn.

In test [1] the target is T1, B1R receptor of the rat (Rattus norvegicus, UniProt P97583).
T1 construct: host or cells: CHO K1 cells (Chinese hamster ovary), stably transfected
T1 sequence (P97583 1-337): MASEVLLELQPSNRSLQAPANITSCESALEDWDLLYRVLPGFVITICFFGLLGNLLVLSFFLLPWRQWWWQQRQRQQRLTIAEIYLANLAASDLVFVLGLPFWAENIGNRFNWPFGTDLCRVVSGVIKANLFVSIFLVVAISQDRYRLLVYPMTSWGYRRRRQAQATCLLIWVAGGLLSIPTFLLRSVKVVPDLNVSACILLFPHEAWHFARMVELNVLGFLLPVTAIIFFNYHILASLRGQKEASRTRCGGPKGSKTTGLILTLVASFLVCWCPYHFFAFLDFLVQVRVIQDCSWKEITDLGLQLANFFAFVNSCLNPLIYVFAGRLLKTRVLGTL
Briefly: Functional study on the bradykinin receptor 1 (B1R), FLIPR Ca2+ assay, rB1R cells. Type of test: cell-based. Conditions: agonist Des-Arg9-bradykinin 100 nM, % inhibition compared with the maximum achievable inhibition; for B1R Antagonism, rat [10 μM] % Inhibition: test substance 10 μM, rB1R CHO K1 cells; for inhibition at 10 µM: CHO-K1, test substance 10 μM, read-out: B1R Antagonism, rat [10 μM] % Inhibition. In outline:
(§1)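 FLIPR Ca2+ assay in recombinant CHO K1 cells (human or rat B1R), Fluo-4 dye; 10 μM compound, 10 min, then EC-level agonist per species (0.5 nM Lys-Des-Arg9-BK human / 100 nM Des-Arg9-BK rat). Output: % inhibition vs maximum.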

Test [2] addresses T2, human B1R receptor (Homo sapiens, UniProt P46663).
T2 construct: host or cells: CHO K1 cells (Chinese hamster ovary), stably transfected
T2 sequence (P46663 1-353): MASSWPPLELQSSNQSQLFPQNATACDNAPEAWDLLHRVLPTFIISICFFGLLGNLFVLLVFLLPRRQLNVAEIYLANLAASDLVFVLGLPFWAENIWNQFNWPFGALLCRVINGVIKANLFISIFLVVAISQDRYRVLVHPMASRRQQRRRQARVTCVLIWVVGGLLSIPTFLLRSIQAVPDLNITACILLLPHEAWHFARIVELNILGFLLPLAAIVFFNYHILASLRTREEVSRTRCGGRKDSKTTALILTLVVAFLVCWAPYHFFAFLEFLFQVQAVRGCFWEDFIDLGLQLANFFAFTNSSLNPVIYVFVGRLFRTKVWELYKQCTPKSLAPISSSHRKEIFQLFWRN
Briefly: Functional study on the bradykinin receptor 1 (B1R), FLIPR Ca2+ assay, hB1R cells. Format: cell-based. Conditions: agonist Lys-Des-Arg9-bradykinin 0.5 nM, % inhibition compared with the maximum achievable inhibition; for B1R Antagonism, human [10 μM] % Inhibition: test substance 10 μM, hB1R CHO K1 cells; for inhibition at 10 µM: CHO-K1, test substance 10 μM, read-out: B1R Antagonism, human [10 μM] % Inhibition. The method in brief:
as §1

For the compound `CN(C)C1CCN(C(=O)COCCC2CCCCN2S(=O)(=O)c2cccc3ccccc23)C1` (centres unmarked) [Example 66, 1-(3-dimethylamino-pyrrolidin-1-yl)-2-[1-(naphthyl-1-sulfonyl)-piperidin-2-ylethoxy]-ethanone], the “B1R Antagonism, rat [10 μM] % Inhibition” value in test [1] came to 38.64%. Besides, in test [2], the “B1R Antagonism, human [10 μM] % Inhibition” value stood at 55.38%.
On to `COc1ccc(S(=O)(=O)N2Cc3ccccc3C[C@H]2COCC(=O)N2CCN(CC3CCN(C)CC3)CC2)cc1` [Example 189, (S)-2-((2-(4-methoxyphenylsulfonyl)-1,2,3,4-tetrahydroisoquinolin-3-yl)methoxy)-1-(4-((1-methylpiperidin-4-yl)methyl)piperazin-1-yl)ethanone dihydrochloride], for which the inhibition at 10 µM in test [1] was 86.4%; in test [2], 70.7%.
In the case of `COc1cc(C)c(S(=O)(=O)N2CCCCC2COCC(=O)N2CCC(N3CCN4CCCCC4C3)CC2)c(C)c1.Cl.Cl` (centres unmarked) [Example 99], the “B1R Antagonism, rat [10 μM] % Inhibition” value in test [1] is reported as 100.08%. Moreover, in test [2], the “B1R Antagonism, human [10 μM] % Inhibition” value is given as 103.76%.
Turning to `CN1CCC(N2CCN(C(=O)COCC3CCCCN3S(=O)(=O)c3ccc(Cl)c4nonc34)CC2)CC1` (centres unmarked) [Example 154, 2-((1-(7-chlorobenzo[c][1,2,5]oxadiazol-4-ylsulfonyl)piperidin-2-yl)methoxy)-1-(4-(1-methylpiperidin-4-yl)piperazin-1-yl)ethanone], the inhibition at 10 µM in test [1] amounted to 84.4%; in test [2], 83.2%.
Regarding `O=C(COCC1CCCCN1S(=O)(=O)c1c(Cl)cccc1Cl)N1CCN(c2ccc(Cl)c(Cl)c2)CC1` (centres unmarked) [Example 404, 1-(4-(3,4-dichlorophenyl)piperazin-1-yl)-2-((1-(2,6-dichlorophenylsulfonyl)piperidin-2-yl)methoxy)ethanone], the results for the inhibition at 10 µM in test [1] and in test [2] were 98.5% and 55.1%, respectively.
On to `COc1cc(C)c(S(=O)(=O)N2CCCCC2COCC(=O)N2CCC(COc3ccncc3)CC2)c(C)c1` (centres unmarked) [Example 188, 2-((1-(4-methoxy-2,6-dimethylphenylsulfonyl)piperidin-2-yl)methoxy)-1-(4-((pyridin-4-yloxy)methyl)piperidin-1-yl)ethanone], for which the inhibition at 10 µM in test [1] and in test [2] was 102% in each case.
As for `CN1CCC(N2CCN(C(=O)COCC3CCCCN3S(=O)(=O)c3cc(C(F)(F)F)ccc3C(F)(F)F)CC2)CC1` (centres unmarked) [Example 153, 2-((1-(2,5-bis(trifluoromethyl)phenylsulfonyl)piperidin-2-yl)methoxy)-1-(4-(1-methylpiperidin-4-yl)piperazin-1-yl)ethanone], the inhibition at 10 µM in test [1] was 40.6%; in test [2], 81.6%.
Regarding `CN1CCC(N2CCN(C(=O)COCC3CCCN3S(=O)(=O)c3ccc(Cl)c(Cl)c3)CC2)CC1` (centres unmarked) [Example 62, 2-[1-(3,4-dichloro-phenylsulfonyl)-pyrrolidin-2-ylmethoxy]-1-[4-(1-methyl-piperidin-4-yl)-piperazin-1-yl]-ethanone], the inhibition at 10 µM turned out to be 34% in test [1] and 59.6% in test [2].
As for `COc1ccc(S(=O)(=O)N2c3ccccc3CC2COCC(=O)Nc2cccc(CN3CCCCC3)c2)cc1` (centres unmarked) [Example 423, 2-((1-(4-methoxyphenylsulfonyl)indolin-2-yl)methoxy)-N-(3-(piperidin-1-ylmethyl)phenyl)acetamide], the values for the inhibition at 10 µM in test [1] and in test [2] were 80.1% and 58.7%, respectively.
Take `O=C(COCC1CCCN1S(=O)(=O)c1c(Cl)cccc1Cl)N1CCC(N2CCCCC2)CC1` (centres unmarked) [Example 337, 1-(1,4′-bipiperidin-1′-yl)-2-((1-(2,6-dichlorophenylsulfonyl)pyrrolidin-2-yl)methoxy)ethanone]: the inhibition at 10 µM in test [1] and in test [2] was 104% each time.
For the compound `COc1cc(OC)cc(N2CCN(C(=O)COCC3CCCCN3S(=O)(=O)c3c(C)cc(OC)cc3C)CC2)c1` (centres unmarked) [Example 340, 1-(4-(3,5-dimethoxyphenyl)piperazin-1-yl)-2-((1-(4-methoxy-2,6-dimethylphenylsulfonyl)piperidin-2-yl)methoxy)ethanone], the inhibition at 10 µM amounted to 101% in test [1] and 105% in test [2].
`CN1CCC(N2CCN(C(=O)COCC3CCCCN3S(=O)(=O)c3ccccc3Cl)CC2)CC1` (centres unmarked) [Example 139, 2-((1-(2-chlorophenylsulfonyl)piperidin-2-yl)methoxy)-1-(4-(1-methylpiperidin-4-yl)piperazin-1-yl)ethanone dihydrochloride]: the inhibition at 10 µM was found to be 98.8% in test [1] and 99.9% in test [2].
With `COc1cc(C)c(S(=O)(=O)N2CCCCC2COCC(=O)NCC2CCCN(Cc3ccccc3)C2)c(C)c1` (centres unmarked) [Example 415, N-((1-benzylpiperidin-3-yl)methyl)-2-((1-(4-methoxy-2,6-dimethylphenylsulfonyl)piperidin-2-yl)methoxy)acetamide], the inhibition at 10 µM in test [1] amounted to 97.5%; in test [2], 99.2%.
For the compound `CCN(CC)CCN(CC)C(=O)COCC1CCCCN1S(=O)(=O)c1c(C)cc(OC)cc1C` (centres unmarked) [Example 380, N-(2-(diethylamino)ethyl)-N-ethyl-2-((1-(4-methoxy-2,6-dimethylphenylsulfonyl)piperidin-2-yl)methoxy)acetamide], the inhibition at 10 µM in test [1] amounted to 101%; in test [2], 91.5%.
Regarding `COc1cc(C)c(S(=O)(=O)N2CCCCC2COCC(=O)N2CCC(C(=O)N3CCN(C)CC3)CC2)c(C)c1` (centres unmarked) [Example 146, 2-((1-(4-methoxy-2,6-dimethylphenylsulfonyl)piperidin-2-yl)methoxy)-1-(4-(4-methylpiperazin-1-carbonyl)piperidin-1-yl)ethanone], the inhibition at 10 µM in test [1] was 99.6%; in test [2], 97.3%.
As for `COc1cc(C)c(S(=O)(=O)N2CCCCC2COCC(=O)NC(CN(C)C)c2ccccc2)c(C)c1` (centres unmarked) [Example 261, N-(2-(dimethylamino)-1-phenylethyl)-2-((1-(4-methoxy-2,6-dimethylphenylsulfonyl)piperidin-2-yl)methoxy)acetamide], the inhibition at 10 µM in test [1] was determined as 98.9%; in test [2], 78.9%.
As to `COc1cc(C)c(S(=O)(=O)N2CCCCC2COCC(=O)N2CCN(C(=O)OC(C)(C)C)CC2)c(C)c1` (centres unmarked) [Example 101, tert-butyl 4-(2-((1-(4-methoxy-2,6-dimethylphenylsulfonyl)piperidin-2-yl)methoxy)acetyl)piperazin-1-carboxylate], the inhibition at 10 µM in test [1] and in test [2] was 100% throughout.
For the compound `CN(CCC1CCC(N(C)C)CC1)C(=O)COCC1CCc2ccccc2N1S(=O)(=O)c1ccc(Cl)c(Cl)c1` (centres unmarked) [Example 213, 2-((1-(3,4-dichlorophenylsulfonyl)-1,2,3,4-tetrahydroquinolin-2-yl)methoxy)-N-(2-(4-(dimethylamino)cyclohexyl)ethyl)-N-methylacetamide], the inhibition at 10 µM in test [1] was 94.5%; in test [2], 59.7%.
For the compound `Cc1cc(S(=O)(=O)N2CCCCC2COCC(=O)N2CCN(C3CCN(C)CC3)CC2)c(C)cc1Cl` (centres unmarked) [Example 114, 2-((1-(4-chloro-2,5-dimethylphenylsulfonyl)piperidin-2-yl)methoxy)-1-(4-(1-methylpiperidin-4-yl)piperazin-1-yl)ethanone dihydrochloride], the figures for the inhibition at 10 µM in test [1] and in test [2] were 103% and 102%, respectively.
Consider `COc1cc(C)c(S(=O)(=O)N2CCCCC2COCC(=O)N2CCN(CC3CCN(C)CC3)CC2)c(C)c1` (centres unmarked) [Example 106, 2-((1-(4-methoxy-2,6-dimethylphenylsulfonyl)piperidin-2-yl)methoxy)-1-(4-((1-methylpiperidin-4-yl)methyl)piperazin-1-yl)ethanone dihydrochloride], for which the inhibition at 10 µM in test [1] and in test [2] was 103% each time.
`COc1cc(C)c(S(=O)(=O)N2CCCC2COCC(=O)N2CCC(N3CCCC3)CC2)c(C)c1` (centres unmarked) [Example 518, 2-((1-(4-methoxy-2,6-dimethylphenylsulfonyl)pyrrolidin-2-yl)methoxy)-1-(4-(pyrrolidin-1-yl)piperidin-1-yl)ethanone]: the inhibition at 10 µM in test [1] was 99.7%; in test [2], 103%.
As for `COc1cccc(N2CCN(C(=O)COCC3CCCN3S(=O)(=O)c3c(Cl)cccc3Cl)CC2)c1` (centres unmarked) [Example 324, 2-((1-(2,6-dichlorophenylsulfonyl)pyrrolidin-2-yl)methoxy)-1-(4-(3-methoxyphenyl)piperazin-1-yl)ethanone], the inhibition at 10 µM was found to be 98.4% in test [1] and 84% in test [2].

Usually inhibition stands for the change of the read-out against control, counted positive when it falls.

The record behind these values is US8435978B2, “Substituted sulfonamide compounds” (Gruenenthal GmbH, priority 2006, dated 2013).
